According to ChEMBL document CHEMBL3817835, “Progress in the development of small molecules as new human A3adenosine receptor ligands based on the 3-thiophenylcoumarin core” (Medchemcomm, 2016):

Legend:
Adenosine receptor A3 = Adenosine receptor A3 (Homo sapiens, UniProt P0DMS8); assay: Displacement of [3H]HEMADO from human A3 adenosine receptor expressed in CHO cells; type: cell-based
Adenosine receptor A1 = molecular target: T1, Adenosine receptor A1 (Homo sapiens, UniProt P30542); assay: Displacement of [3H]CCPA from human A1 adenosine receptor expressed in CHO cells; type: cell-based
T1 sequence (P30542 whole entry): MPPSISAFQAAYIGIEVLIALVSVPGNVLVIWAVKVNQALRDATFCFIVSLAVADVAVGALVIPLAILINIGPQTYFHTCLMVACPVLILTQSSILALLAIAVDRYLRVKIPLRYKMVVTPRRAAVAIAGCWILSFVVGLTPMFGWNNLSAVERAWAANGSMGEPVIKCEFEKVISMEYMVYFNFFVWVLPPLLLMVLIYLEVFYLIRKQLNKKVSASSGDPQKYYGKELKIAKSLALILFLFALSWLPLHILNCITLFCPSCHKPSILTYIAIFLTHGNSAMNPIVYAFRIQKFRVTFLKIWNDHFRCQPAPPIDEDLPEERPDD

Adenosine receptor A2a = Adenosine receptor A2a (Homo sapiens, UniProt P29274); assay: Displacement of [3H]NECA from human A2A adenosine receptor expressed in CHO cells; type: cell-based
Chain of Adenosine receptor A2a (P29274 whole entry): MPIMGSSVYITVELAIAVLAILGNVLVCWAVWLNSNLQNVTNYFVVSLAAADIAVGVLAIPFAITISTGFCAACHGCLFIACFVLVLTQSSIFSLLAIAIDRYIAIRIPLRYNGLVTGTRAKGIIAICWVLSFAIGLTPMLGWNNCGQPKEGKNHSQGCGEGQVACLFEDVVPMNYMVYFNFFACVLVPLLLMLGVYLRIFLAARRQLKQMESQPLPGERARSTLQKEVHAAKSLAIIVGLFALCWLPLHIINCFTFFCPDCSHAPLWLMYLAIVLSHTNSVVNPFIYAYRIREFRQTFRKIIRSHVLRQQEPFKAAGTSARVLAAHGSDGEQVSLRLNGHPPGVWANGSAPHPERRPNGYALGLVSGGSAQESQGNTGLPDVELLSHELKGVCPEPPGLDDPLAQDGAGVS

Adenosine receptor A2b = molecular target: T2, Adenosine receptor A2b (Homo sapiens, UniProt P29275); assay: Antagonist activity at human A2B adenosine receptor assessed as inhibition of NECA-stimulated adenylyl cyclase activity; type: functional
T2 sequence (P29275 whole entry): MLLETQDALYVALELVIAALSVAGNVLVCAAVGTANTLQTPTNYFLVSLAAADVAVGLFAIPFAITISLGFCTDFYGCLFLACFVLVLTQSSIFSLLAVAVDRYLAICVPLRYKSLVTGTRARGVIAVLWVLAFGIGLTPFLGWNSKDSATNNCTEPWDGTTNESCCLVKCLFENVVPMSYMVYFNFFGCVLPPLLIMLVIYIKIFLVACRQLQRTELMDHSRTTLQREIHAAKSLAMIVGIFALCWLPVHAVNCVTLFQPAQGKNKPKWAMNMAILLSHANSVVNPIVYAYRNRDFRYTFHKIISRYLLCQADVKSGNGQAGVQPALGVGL

[1] = molecular target: Adenosine receptors; A1 & A3 (Homo sapiens) (UniProt P30542+P0DMS8); assay: Selectivity index, ratio of Ki for human A1 adenosine receptor to Ki for human A3 adenosine receptor
Homo sapiens = species: Homo sapiens; assay: Selectivity index, ratio of Ki for human A2 adenosine receptor to Ki for human A3 adenosine receptor

Chain of Adenosine receptor A3 (P0DMS8 whole entry, looked up): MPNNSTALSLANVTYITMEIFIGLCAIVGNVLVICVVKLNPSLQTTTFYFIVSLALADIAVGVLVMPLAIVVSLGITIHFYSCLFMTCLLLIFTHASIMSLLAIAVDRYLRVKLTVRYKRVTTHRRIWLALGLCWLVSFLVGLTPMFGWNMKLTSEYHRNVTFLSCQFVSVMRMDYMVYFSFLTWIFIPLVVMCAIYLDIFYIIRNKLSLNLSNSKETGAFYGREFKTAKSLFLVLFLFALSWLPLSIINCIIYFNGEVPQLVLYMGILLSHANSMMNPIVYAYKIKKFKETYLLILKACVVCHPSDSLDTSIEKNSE

| Compound | Ki (Adenosine receptor A3) [µM] | Ki (Adenosine receptor A1) [µM] | Ki (Adenosine receptor A2a) [µM] | Ki (Adenosine receptor A2b) [µM] | Ratio Ki [1] | Ratio Ki (Homo sapiens) |
| --- | --- | --- | --- | --- | --- | --- |
| O=c1oc2c(O)c(O)ccc2cc1-c1cc(Br)cs1 | 3.4 | 16.3 | 12.2 | > 30 |  |  |
| CC(=O)Oc1ccc2cc(-c3cc(Br)cs3)c(=O)oc2c1OC(C)=O | > 100 | > 100 | > 100 | > 30 |  |  |
| CC(=O)Oc1ccc2cc(-c3ccsc3)c(=O)oc2c1OC(C)=O | 3.6 | > 100 | 20.6 | > 30 |  |  |
| CC(=O)Oc1cccc2cc(-c3cc(Br)cs3)c(=O)oc12 | 4.08 | > 100 | > 100 | > 30 |  |  |
| CC(=O)Oc1cccc2cc(-c3ccsc3)c(=O)oc12 | 1.82 | > 100 | 14.7 | > 30 |  |  |

Continued, values first:

| Ki (Adenosine receptor A3) [µM] | Ki (Adenosine receptor A1) [µM] | Ki (Adenosine receptor A2a) [µM] | Ki (Adenosine receptor A2b) [µM] | Ratio Ki [1] | Ratio Ki (Homo sapiens) | Compound |
| --- | --- | --- | --- | --- | --- | --- |
| 0.746 | > 100 | > 100 | > 30 | 130 | 130 | O=c1oc2c(O)cccc2cc1-c1cc(Br)cs1 |
| 5.31 | 3.36 | 14.7 | > 30 |  |  | O=c1oc2c(O)c(O)ccc2cc1-c1ccsc1 |
| 2.87 | 5.92 | 9.87 | > 30 |  |  | O=c1oc2c(O)cccc2cc1-c1ccsc1 |
| 22.5 | > 100 | > 100 | > 30 |  |  | CC(=O)Oc1ccc2cc(-c3cccs3)c(=O)oc2c1OC(C)=O |
| 1.43 | 3.36 | 7.48 | > 30 |  |  | O=c1oc2c(O)cccc2cc1-c1cccs1 |
| 2.58 | > 100 | 18.8 | > 30 |  |  | CC(=O)Oc1cccc2cc(-c3cccs3)c(=O)oc12 |
| 4.83 | 3.23 | 9.98 | > 30 |  |  | O=c1oc2c(O)c(O)ccc2cc1-c1cccs1 |
